Reference: ChEMBL document CHEMBL5375956, “Discovery of Pyrazolo[1,5-a]pyrimidine Derivative as a Novel and Selective ALKBH5 Inhibitor for the Treatment of AML” (J Med Chem, 2023)
Calls of active or inactive are those of the source. The calls are words filed in the database; no cut-off is given here.

Tests used:
[1] = tested on: MV4-11; assay: Antiproliferative activity against human MV4-11 cells assessed as inhibition of cell proliferation incubated for 72 hrs by Cell Titer Luminescence assay; type: functional, cell-based; settings: MV4-11, 72 h
[2] = tested on: MV4-11; assay: Antitumor activity against human MV4-11 cells xenografted in nude mouse assessed as reduction in tumor weight at 10 to 40 mg/kg, ip treated every day for 14 days; type: functional, organism-based; settings: dose 10-40 mg/kg, time 14.0 day
[3] = Toxicity in nude mouse xenografted with human MV4-11 cells assessed as spleen damage at 10 to 40 mg/kg, ip treated every day for 14 days by H and E staining based analysis; type: organism-based; settings: in vivo, 336 h, dose 10-40 mg/kg, time 14 day
[4] = Half life in Sprague-Dawley rat at 10 mg/kg, po measured for 1 to 1440 mins by LC-MS/MS analysis; type: ADME, organism-based; settings: in vivo, time 1-1440 min
[5] = tested on: HUVEC; assay: Effect on c-Myc level in HUVEC cells upto 10 uM incubated for 48 hrs by Western blot analysis; type: functional, cell-based; settings: Homo sapiens
[6] = biological target: T1, RNA demethylase ALKBH5 (Homo sapiens, UniProt Q6P6C2); assay: Inhibition of ALKBH5 (66 to 292 residues)(unknown origin) expressed in Escherichia coli BL21(DE3) using 5'-ATTGTCA(m6A)CAGCAGA-FAM-3' as substrate incubated for 30 mins by FP assay
Target sequence in this assay (Q6P6C2 whole entry, the tested form may be a part): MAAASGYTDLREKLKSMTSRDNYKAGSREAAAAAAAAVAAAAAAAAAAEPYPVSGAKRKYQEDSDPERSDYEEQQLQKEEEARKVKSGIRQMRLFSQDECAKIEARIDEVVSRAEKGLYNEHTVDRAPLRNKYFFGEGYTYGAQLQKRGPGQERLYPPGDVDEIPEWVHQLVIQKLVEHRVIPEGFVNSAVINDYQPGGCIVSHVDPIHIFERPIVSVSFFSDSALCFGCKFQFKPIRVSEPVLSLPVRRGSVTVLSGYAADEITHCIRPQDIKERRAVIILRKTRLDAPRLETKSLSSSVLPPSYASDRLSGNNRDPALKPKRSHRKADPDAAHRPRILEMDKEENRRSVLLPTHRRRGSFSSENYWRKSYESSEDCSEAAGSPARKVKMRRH

[7] = Tmax in Sprague-Dawley rat at 10 mg/kg, po measured for 1 to 1440 mins by LC-MS/MS analysis; type: ADME, organism-based; settings: in vivo, time 1-1440 min
[8] = tested on: MV4-11; assay: Downregulation of TACC3 level in human MV4-11 cells upto 10 uM incubated for 48 hrs by Western blot analysis; type: functional, cell-based
[9] = Metabolic stability in rat liver microsomes assessed as clearance measured upto 240 mins by LC-MS/MS analysis; type: ADME, Microsome; settings: read-out: CLH
[10] = tested on: HUVEC; assay: Antiproliferative activity against HUVEC cells assessed as inhibition of cell proliferation incubated for 72 hrs by Cell Titer Luminescence assay; type: functional, cell-based; settings: Homo sapiens
[11] = MRT in Sprague-Dawley rat at 10 mg/kg, po measured for 1 to 1440 mins by LC-MS/MS analysis; type: ADME, organism-based; settings: in vivo, time 1-1440 min
[12] = biological target: RNA demethylase ALKBH5 (Homo sapiens, UniProt Q6P6C2, K132A); assay: Binding affinity to NT-647-NHS fluorescent dye-labeled ALKBH5 K132A mutant (unknown origin) expressed in Escherichia coli BL21(DE3) using m6A-ssDNA as substrate assessed as dissociation constant incubated for 15 mins by MST assay
[13] = tested on: MV4-11; assay: Antitumor activity against human MV4-11 cells xenografted in nude mouse assessed as tumor growth inhibition at 10 mg/kg, ip treated every day for 14 days relative to control; type: functional; settings: MV4-11, 336 h, time 14 day, read-out: TGI
[14] = tested on: HEK293; assay: Antiproliferative activity against HEK293 cells assessed as inhibition of cell proliferation incubated for 72 hrs by Cell Titer Luminescence assay; type: functional, cell-based; settings: Homo sapiens, HEK293, 72 h
[15] = Metabolic stability in rat liver microsomes assessed as half life measured upto 240 mins by LC-MS/MS analysis; type: ADME, Microsome
[16] = tested on: MV4-11; assay: Downregulation of TACC3 mRNA level in human MV4-11 cells assessed as half life of expression at 20 umol/L incubated for 24 hrs by qRT-PCR analysis (reference value: 2.63 hrs); type: functional, cell-based; settings: dose 20.0 µmol/L
[17] = tested on: MOLM-13; assay: Induction of cell cycle arrest at […] phase in human MOLM-13 cells at 20 uM incubated for 48 hrs by […]PI staining based flow cytometry; type: functional
[18] = tested on: MOLM-13; assay: Induction of apoptosis in human MOLM-13 cells assessed as late apoptosis cells at 10 uM incubated for 48 hrs by Annexin V-FITC/PI staining based flow cytometry (reference value: 6.49 %); type: functional
[19] = Metabolic stability in human liver microsomes assessed as half life measured upto 240 mins by LC-MS/MS analysis; type: ADME, Microsome
[20] = tested on: MOLM-13; assay: Induction of apoptosis in human MOLM-13 cells assessed as late apoptosis cells at 5 uM incubated for 48 hrs by Annexin V-FITC/PI staining based flow cytometry (reference value: 6.49 %); type: functional
[21] = biological target: T1, RNA demethylase ALKBH5; assay: Inhibition of ALKBH5 in human MOLM-13 cells assessed as increase in m6A RNA level by dot blot assay; type: cell-based; settings: dose <= 20.0 µM
Target sequence in this assay (Q6P6C2 2-394 limits assumed): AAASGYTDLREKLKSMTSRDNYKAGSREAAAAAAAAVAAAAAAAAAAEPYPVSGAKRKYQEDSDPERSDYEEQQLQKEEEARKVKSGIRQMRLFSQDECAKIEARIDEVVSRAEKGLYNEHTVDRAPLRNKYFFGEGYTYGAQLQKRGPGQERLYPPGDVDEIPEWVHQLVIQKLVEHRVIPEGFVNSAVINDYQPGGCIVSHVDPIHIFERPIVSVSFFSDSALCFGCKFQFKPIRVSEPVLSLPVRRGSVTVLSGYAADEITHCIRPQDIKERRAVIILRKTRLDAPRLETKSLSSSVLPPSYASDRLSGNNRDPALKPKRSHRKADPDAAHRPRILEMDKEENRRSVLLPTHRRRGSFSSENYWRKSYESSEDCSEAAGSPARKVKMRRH

[22] = Toxicity in nude mouse xenografted with human MV4-11 cells assessed as liver damage at 10 to 40 mg/kg, ip treated every day for 14 days by H and E staining based analysis; type: organism-based; settings: in vivo, 336 h, dose 10-40 mg/kg, time 14 day
[23] = Toxicity in nude mouse xenografted with human MV4-11 cells assessed as kidney damage at 10 to 40 mg/kg, ip treated every day for 14 days by H and E staining based analysis; type: organism-based; settings: in vivo, 336 h, dose 10-40 mg/kg, time 14 day
[24] = tested on: MOLM-13; assay: Induction of apoptosis in human MOLM-13 cells assessed as early apoptosis cells at 5 uM incubated for 48 hrs by Annexin V-FITC/PI staining based flow cytometry (reference value: 2.72 %); type: functional
[25] = tested on: MV4-11; assay: Induction of apoptosis in human MV4-11 cells assessed as late apoptosis cells at 5 uM incubated for 48 hrs by Annexin V-FITC/PI staining based flow cytometry (reference value: 7.17 %); type: functional
[26] = biological target: T1, RNA demethylase ALKBH5; assay: Inhibition of ALKBH5 (66 to 292 residues)(unknown origin) expressed in Escherichia coli BL21(DE3) using 5'-ATTGTCA(m6A)CAGCAGA-FAM-3' as substrate incubated for 30 mins in presence of 2 uM of 2-OG by FP based competitive binding assay
Target sequence in this assay (Q6P6C2 whole entry, the tested form may be a part): as the sequence (Q6P6C2 whole entry, the tested form may be a part) above

[27] = biological target: T1, RNA demethylase ALKBH5; assay: Inhibition of ALKBH5 (66 to 292 residues)(unknown origin) expressed in Escherichia coli BL21(DE3) using 5'-TAGACATTGCCATTCTCGATAGG (m6A)-TC CGGTCAAACCTAGAC GAATTCCA-3' as substrate incubated for 2 hrs by restriction endonuclease digestion assay; settings: dose 25-200 µM
Target sequence in this assay (Q6P6C2 2-394 limits assumed): as the sequence (Q6P6C2 2-394 limits assumed) above

[28] = tested on: HUVEC; assay: Effect on c-Myc mRNA level in HUVEC cells at 5 to 10 uM incubated for 48 hrs by qRT-PCR analysis; type: functional, cell-based; settings: Homo sapiens, dose 5-10 µM
[29] = Toxicity in nude mouse xenografted with human MV4-11 cells assessed as heart damage at 10 to 40 mg/kg, ip treated every day for 14 days by H and E staining based analysis; type: organism-based; settings: in vivo, 336 h, dose 10-40 mg/kg, time 14 day
[30] = tested on: HUVEC; assay: Effect on TACC3 mRNA level in HUVEC cells at 5 to 10 uM incubated for 48 hrs by qRT-PCR analysis; type: functional, cell-based; settings: Homo sapiens, dose 5-10 µM
[31] = Apparent oral clearance in Sprague-Dawley rat at 10 mg/kg, po measured for 1 to 1440 mins by LC-MS/MS analysis; type: ADME, organism-based; settings: in vivo, time 1-1440 min
[32] = Toxicity in nude mouse xenografted with human MV4-11 cells assessed as kidney weight change at 10 to 40 mg/kg, ip treated every day for 14 days; type: organism-based; settings: in vivo, 336 h, dose 10-40 mg/kg, time 14 day
[33] = tested on: MOLM-13; assay: Antiproliferative activity against human MOLM-13 cells assessed as inhibition of cell proliferation incubated for 72 hrs by Cell Titer Luminescence assay; type: functional, cell-based; settings: MOLM-13, 72 h
[34] = biological target: T1, RNA demethylase ALKBH5; assay: Inhibition of ALKBH5 (66 to 292 residues)(unknown origin) expressed in Escherichia coli BL21(DE3) using 5'-ATTGTCA(m6A)CAGCAGA-FAM-3' as substrate incubated for 30 mins in presence of 20 uM of 2-OG by FP based competitive binding assay
Target sequence in this assay (Q6P6C2 whole entry, the tested form may be a part): as the sequence (Q6P6C2 whole entry, the tested form may be a part) above

Chain of RNA demethylase ALKBH5 (Homo sapiens, UniProt Q6P6C2, K132A) (Q6P6C2 2-394 K132A limits assumed): as the sequence (Q6P6C2 2-394 limits assumed) above, with K131A counted along it

IC50 [1]: 1.2 µM
half-life [4]: 2.47 h
IC50 [6]: 2.97 µM
Tmax [7]: 0.5 h
microsomal CLint [9]: 100 µL/min/mg
MRT [11]: 2.8 h
Kd [12]: 53 µM
half-life [15]: 0.23 h
half-life [19]: 7.17 h
inhibition [21]: Dose-Dependent Effect
IC50 [26]: 4.64 µM
inhibition [27]: Dose-Dependent Effect
CL/F [31]: 28.8 mL/min/kg
IC50 [33]: 0.45 µM
IC50 [34]: 4.32 µM
SMILES: O=C(OCc1ccc(C(F)(F)F)cc1)c1ccc(-c2cc3ncc(C(=O)c4c(O)ccc([N+](=O)[O-])c4O)cn3n2)cc1
Activity [2]: Active
Activity [3]: Non-Toxic
Activity [5]: inactive
Activity [8]: Active
IC50 [10]: 165 µM
inhibition in vivo at 10 mg/kg [13]: 56.3%
IC50 [14]: 97.4 µM
T1/2 [16]: 1.96 h
Activity [17]: Active
Activity [18]: 31.5%
Activity [20]: 16.5%
Activity [22]: Non-Toxic
Activity [23]: Non-Toxic
Activity [24]: 2.91%
Activity [25]: 36%
Activity [28]: inactive
Activity [29]: Non-Toxic
Activity [30]: inactive
Activity [32]: Non-Toxic
